{"source": "patent US20060194235A1", "about": "“HLJ1 gene expression” (priority 2005, published 2006)", "key": {"PCY3 cells": {"test_system": "PCY3 cells", "experiment": "In vitro Matrigel invasion assay", "format": "cell-based, human", "conditions": "siRNA treated", "method": "The metastatic potential of tumors depends, in part, on the ability of the tumor cells to invade through a basement membrane and migrate to distant sites. The ability of cells transfected with HLJ1 to penetrate a Matrigel™ membrane using an in vitro assay, which is a modified Boyden chamber assay, as described in Example 15, was determined as an index of the metastatic potential of these cells. The YY1 transfectant PCY3, which expressed a high level of HLJ1, reduced cell invasion capability to about 56% and about 61% of the levels of CL1-0 and mock transfectants, respectively (68).\nIn vitro Matrigel™ invasion assays were performed in 6.5-mm transwell chambers (8 μm pore size; Costar®). The transwell filters in the chambers were coated with Matrigel™ (Becton Dickinson, Franklin Lakes, N.J.) (58). After a 16 or 24 h incubation, the filter was gently removed from the chamber, and the noninvasive cells on the upper surface were removed by wiping with a cotton swab. The cells that invaded the Matrigel™ and attached to the lower surface of the filter were fixed with methanol and stained with Giemza solution (Sigma, St. Louis, Mo.). The number of cells attached to the lower surface of the polycarbonate filter was counted under a light microscope at 200× magnification. Five fields of adherent cells were randomly counted in each well and the results were numerically averaged. […]"}, "HLJ1": {"test_system": "HLJ1", "experiment": "siRNA knock-down of endogenous HLJ1 in the YY1 transfected cell line PCY3", "format": "cell-based, human", "conditions": "PCY3 cells", "source_text": "Inhibiting the ability of transfected cells to express HLJ1 can restore their invasive capacity. Small inhibiting RNA (siRNA) specific for HLJ1 decreased the endogenous HLJ1 RNA level in the YY1 transfected cell line, PCY3.\nTwo siRNA sequences were synthesized according to standard protocols (68). The sequence of HLJ1-A was […]. The sequence of HLJ1-D was […]. HLJ1-A and HLJ1-D reduced its expression by 64%. […] A negative control, scrambled siRNA, had no significant effect on HLJ1 expression or invasive capacity."}}}
{"substance": "HLJ1-D: siRNA specific for HLJ1, sequence AAACGCTGATGGAAGGAGTTA (other strand not given here)", "values": [{"measurement": "ability of PCY3 cells to invade through Matrigel, compared to PCC2 cells", "setting": "PCY3 cells", "result": 87, "unit": "%"}, {"measurement": "reduction of HLJ1 expression", "setting": "HLJ1", "result": 64, "unit": "%"}]}
